Test systems include CCRF-CEM; COLO 205; HCT-15; HL-60; HOP-92; HT-29; IGROV-1; KM-20L2; LOX IMVI; Malme-3M; NCI-H226; NCI-H522; OVCAR-5; SK-MEL-2; SNB-75; BT-549; DU-145; Hs-578T; U-251; SNB-78.
Experiment in all cases: NCI anticancer screen, dose series, 48 h

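Test compounds were applied to cells in 96-well plates for 48 hours at 5 doses. Here, GI50 denotes the concentration required for 50% inhibition of growth.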 The source made the active and inactive calls. No stated cut-off is given here; in the data, active = GI50 up to about 1.1 µM and inactive = higher.

Take `CC[n+]1c(/C=C/c2cc(C(=O)OC)n3c2sc2ccccc23)sc2ccccc21`: the GI50 was 0.214 µM (active) with CCRF-CEM; 22.9 µM (inactive) in the test on COLO 205; 18.8 µM with HCT-15; 13.9 µM (inactive) with HL-60; 15.5 µM (inactive) in the test on HOP-92; 16.6 µM (inactive) with HT-29. Further, the GI50 was 16.9 µM (inactive) in the test with IGROV-1; 17.8 µM (inactive) in the test on KM-20L2; 17.5 µM (inactive) in the test with LOX IMVI; 16.7 µM (inactive) in the test on Malme-3M; 23 µM (inactive) with NCI-H226; 15.6 µM (inactive) in the test with NCI-H522. In addition, the GI50 is 20.8 µM (inactive) in the test with OVCAR-5, 18.7 µM (inactive) in the test on SK-MEL-2 and 15.7 µM (inactive) in the test on SNB-75.

Regarding `COc1ccc(NC(=O)CC(=O)NNC(Sc2ccccc2)c2cc(/N=N/c3ccc(Br)cc3)ccc2O)cc1` (centres undefined), the GI50 in the test on BT-549 was > 10 µM (inactive); in the test on CCRF-CEM, 3.56 µM (inactive); in the test with COLO 205, > 10 µM (inactive); with DU-145, > 10 µM (inactive); with HCT-15, over 10 µM; with HL-60, 3.61 µM (inactive). For the same compound, the GI50 in the test with HOP-92, with HT-29, in the test with Hs-578T, in the test on IGROV-1, in the test on LOX IMVI and with Malme-3M was > 10 µM (inactive) throughout. The GI50 was 2.74 µM (inactive) with NCI-H226; > 10 µM (inactive) in the test on NCI-H522; > 10 µM (inactive) in the test on OVCAR-5; > 10 µM (inactive) in the test with SK-MEL-2; 5.52 µM (inactive) with SNB-75; > 10 µM (inactive) in the test on U-251.

For the compound `CCOC(=O)c1cccc(NC(=O)CCl)c1`, the GI50 is 4.45 µM (inactive) in the test with BT-549; 3.21 µM (inactive) in the test on CCRF-CEM; 7.74 µM (inactive) in the test with COLO 205; 9.44 µM (inactive) with DU-145; 2.75 µM in the test with HCT-15; 3.94 µM (inactive) with HL-60. Also, the GI50 in the test on HOP-92 is 7.45 µM (inactive); with HT-29 it was 3.81 µM (inactive); in the test on Hs-578T, 2.93 µM (inactive); in the test with IGROV-1, 2.48 µM (inactive); with LOX IMVI, 1.34 µM (inactive); in the test with Malme-3M it was 6.22 µM (inactive). Besides, the GI50 in the test with NCI-H226 is 6.55 µM (inactive); with NCI-H522 it was 1.68 µM (inactive); in the test on OVCAR-5, 7 µM (inactive); with SK-MEL-2, 2.64 µM (inactive); in the test on SNB-75, 2.77 µM (inactive); with U-251, 1.4 µM (inactive).

Consider `N#Cc1cc([N+](=O)[O-])ccc1NC(=O)/C(=N/N)C(C(=O)c1ccc(Cl)c(Cl)c1)C1OC(=O)c2ccccc21` (centres undefined), for which the GI50 is 38.9 µM (inactive) with CCRF-CEM; > 100 µM (inactive) with COLO 205; 42.2 µM in the test with HCT-15; 8.81 µM (inactive) in the test on HOP-92; 81.3 µM (inactive) in the test with HT-29; > 100 µM (inactive) in the test on IGROV-1. In addition, the GI50 in the test with LOX IMVI was 21.7 µM (inactive); in the test on Malme-3M, > 100 µM (inactive); in the test on NCI-H226, 16.3 µM (inactive); in the test with NCI-H522 it was 26.1 µM (inactive); in the test with OVCAR-5, 47.2 µM (inactive); in the test on SK-MEL-2, 72.3 µM (inactive). The GI50 with SNB-78 is 75 µM (inactive); in the test with U-251, 42.9 µM (inactive).

For `Cc1cc(C)c2c(=N)c3ccccc3n(CCCCCCO)c2n1`, the GI50 is 6.89 µM (inactive) with BT-549; 1.22 µM (inactive) in the test with CCRF-CEM; 1.35 µM (inactive) with COLO 205; 5.48 µM (inactive) in the test on DU-145; 2.88 µM in the test on HCT-15; 2.9 µM (inactive) in the test with HL-60. The GI50 in the test with HOP-92 was 4.26 µM (inactive); in the test on HT-29, 1.03 µM (active); in the test with Hs-578T it was 3.03 µM (inactive); in the test with IGROV-1, 2.09 µM (inactive); in the test on LOX IMVI, 1.91 µM (inactive); with Malme-3M, 2.63 µM (inactive). For the same compound, the GI50 in the test on NCI-H226 was 3.87 µM (inactive); with NCI-H522 it was 1.44 µM (inactive); in the test on OVCAR-5 it was 4.91 µM (inactive); with SK-MEL-2, 3.27 µM (inactive); with SNB-75, 1.88 µM (inactive); with U-251, 3.51 µM (inactive).

As for `COc1ccc(OCC(=O)O)c2c1CCC(C)C2=O` (centres undefined), the GI50 in the test on CCRF-CEM is > 100 µM (inactive); in the test with COLO 205, > 100 µM (inactive); with HCT-15, over 100 µM; with HL-60, > 100 µM (inactive); in the test with HT-29 it was > 100 µM (inactive); with IGROV-1 it was > 100 µM (inactive). Besides, the GI50 in the test with KM-20L2, in the test with LOX IMVI, with Malme-3M, in the test with NCI-H522, with OVCAR-5 and in the test on SK-MEL-2 was > 100 µM (inactive) each time. The GI50 in the test on SNB-78 and in the test on U-251 was > 100 µM (inactive) each time.

For the compound `CCCCCC1=CC(=O)C1(Cl)Cl`, the GI50 with BT-549 was 17.9 µM (inactive); in the test on CCRF-CEM, 2.23 µM (inactive); with COLO 205, 12.2 µM (inactive); in the test on DU-145, 13.1 µM (inactive); in the test with HCT-15, 12.6 µM; in the test with HL-60 it was 1.83 µM (inactive). Besides, the GI50 in the test with HOP-92 was 13.4 µM (inactive); in the test on HT-29, 14.6 µM (inactive); in the test with Hs-578T it was 19 µM (inactive); in the test on IGROV-1, 18.4 µM (inactive); with LOX IMVI, 6.52 µM (inactive); in the test on Malme-3M, 9.55 µM (inactive). Besides, the GI50 was 15.3 µM (inactive) in the test on NCI-H226; 5.24 µM (inactive) in the test on NCI-H522; 15.4 µM (inactive) with OVCAR-5; 20.4 µM (inactive) in the test on SK-MEL-2; 11.1 µM (inactive) with SNB-75; 9.23 µM (inactive) in the test with U-251.

Turning to `CC(=O)OCC1OC(Sc2ccccn2)C=CC1OC(C)=O` (centres undefined), the GI50 in the test with CCRF-CEM, in the test on COLO 205, in the test with HL-60, with HOP-92, with HT-29 and in the test with IGROV-1 was > 100 µM (inactive) throughout. Moreover, the GI50 with KM-20L2, with LOX IMVI, with Malme-3M, with NCI-H226, with NCI-H522 and in the test with OVCAR-5 was > 100 µM (inactive) each time. For the same compound, the GI50 in the test with SNB-75 and in the test with U-251 was > 100 µM (inactive) throughout.

As to `CCCCCCC1CCC2CCCC(C)N12` (centres undefined), the GI50 in the test with CCRF-CEM is 19 µM (inactive); in the test with COLO 205 it was 16 µM (inactive); in the test on HCT-15 it was 32.8 µM; in the test with HL-60 it was 17.8 µM (inactive); in the test with HOP-92, 25.8 µM (inactive); in the test on HT-29, > 10 µM (inactive). Further, the GI50 was 25.2 µM (inactive) with KM-20L2; > 10 µM (inactive) in the test with Malme-3M; > 100 µM (inactive) with NCI-H226; 22.9 µM (inactive) in the test on NCI-H522; 28.2 µM (inactive) in the test on SK-MEL-2; 39.8 µM (inactive) in the test on SNB-75. The GI50 in the test with U-251 is 10.5 µM (inactive).

Consider `CS(=O)(=O)c1ccc(-c2cc(-c3ccc(S(C)(=O)=O)cc3)[n+](-c3cc(-c4ccccc4)c([O-])c(-c4ccccc4)c3)c(-c3ccc(S(C)(=O)=O)cc3)c2)cc1`, for which the GI50 in the test with COLO 205 is > 100 µM (inactive); in the test on HCT-15, over 100 µM; in the test with HT-29, > 100 µM (inactive); in the test on IGROV-1 it was > 100 µM (inactive); with KM-20L2 it was > 100 µM (inactive); in the test with LOX IMVI, > 100 µM (inactive). Further, the GI50 with Malme-3M, in the test with NCI-H226, in the test on NCI-H522, in the test on OVCAR-5, in the test with SK-MEL-2 and with SNB-78 was > 100 µM (inactive) each time. Besides, the GI50 in the test with U-251 was > 100 µM (inactive).

`Cc1cc(N)c(C)c2c1[nH]c1ccc(O)cc12`: the GI50 with CCRF-CEM was 20.7 µM (inactive); in the test on COLO 205, 47.9 µM (inactive); with HCT-15, over 100 µM; in the test on HL-60, 79.3 µM (inactive); in the test with HT-29, > 100 µM (inactive); with LOX IMVI it was > 100 µM (inactive). The GI50 in the test with Malme-3M was > 100 µM (inactive); in the test with NCI-H226, > 100 µM (inactive); in the test on NCI-H522 it was 17 µM (inactive); with OVCAR-5, > 100 µM (inactive); in the test on SK-MEL-2 it was > 100 µM (inactive); in the test with SNB-78 it was > 100 µM (inactive). The GI50 in the test with U-251 is 88.5 µM (inactive).

In the case of `CC(=O)Oc1ccc(/C=C/C(=O)OCCOC(=O)/C=C/c2ccc(OC(C)=O)c(OC(C)=O)c2)cc1OC(C)=O`, the GI50 in the test with BT-549 is 15.7 µM (inactive); in the test on CCRF-CEM it was 1.25 µM (inactive); with COLO 205 it was 14.1 µM (inactive); in the test with DU-145, 9.06 µM (inactive); in the test on HCT-15 it was 4.75 µM; in the test on HL-60, 3.95 µM (inactive). In addition, the GI50 in the test on HOP-92 was 5.77 µM (inactive); in the test with HT-29 it was 18.6 µM (inactive); in the test on Hs-578T, 16.8 µM (inactive); in the test with IGROV-1, 2.95 µM (inactive); in the test on LOX IMVI, 4.59 µM (inactive); in the test with Malme-3M, 12.4 µM (inactive). For the same compound, the GI50 in the test on NCI-H226 was 14.9 µM (inactive); in the test with NCI-H522, 2.93 µM (inactive); in the test on OVCAR-5, 14.6 µM (inactive); in the test with SK-MEL-2, 17.5 µM (inactive); in the test on SNB-75 it was 4.23 µM (inactive); in the test on U-251, 4.99 µM (inactive).

`O=C(O)c1cc2ccccc2oc1=O` [COUMARIN-3-CARBOXYLIC ACID]: the GI50 with BT-549 was > 100 µM (inactive); in the test on CCRF-CEM it was > 100 µM (inactive); in the test with COLO 205 it was > 100 µM (inactive); in the test on DU-145 it was > 100 µM (inactive); in the test with HCT-15 it was over 100 µM; in the test with HL-60 it was > 100 µM (inactive). In addition, the GI50 in the test with HOP-92, in the test on HT-29, in the test on Hs-578T, in the test with IGROV-1, with LOX IMVI and in the test on Malme-3M was > 100 µM (inactive) throughout. The GI50 in the test with NCI-H226, in the test with NCI-H522, in the test on OVCAR-5, in the test with SK-MEL-2, in the test on SNB-75 and in the test on U-251 was > 100 µM (inactive) each time.
